Reference: patent US12685779B2, “Complex” (UNITED IMMUNITY, CO., LTD., priority 2023, dated 2026)

Tests used:
[1] = Examination of encapsulation of TLR7 and TLR8 agonists in CHP nanogel (Example 1); type: physicochemical; conditions: CHP in 6 M urea in PBS(−), stepwise dialysis against PBS(−)
Protocol: Nine TLR7 and TLR8 agonists (Telratolimod, Motolimod, Vesatolimod, Resiquimod, Imiquimod, CL075, CU-CPT17e, CU-CPT9a, and PF-4878691) were examined for whether they could be encapsulated in CHP nanogel. CHP was dissolved in a 6 M urea solution in PBS(−), and a compound solution was added thereto. Then, stepwise dialysis was performed against PBS(−).

[2] = system: human peripheral blood-derived TAMs; experiment: Polarization test of human peripheral blood-derived TAMs (TNF-α ELISA); type: cell-based; conditions: 30 μM in terms of Telratolimod, 2 days incubation, culture supernatant
Protocol: (§1) Human peripheral blood-derived CD14-positive monocytes that had been cryopreserved in advance were awake and seeded in a 24-well tissue culture plate at 2×10^5 cells/well in 500 μL of basal medium (RPMI, 10% fetal bovine serum, 50 ng/mL M-CSF) and cultured for 3 days in a 37° C., 5% CO2 incubator, after which 500 μL of basal medium was further added, and the cells were cultured for 3 days. The medium was then replaced with 500 μL of TAM differentiation induction medium prepared by adding 10% fetal bovine serum, 50 ng/mL IL-4, 50 ng/mL IL-6, 50 ng/mL IL-10, 50 ng/mL IL-13, and 5% human AB type male donor defibrinated serum (Veritas) to a separately prepared culture supernatant of human cancer cells, and the cells were cultured for 2 days.
A Telratolimod solution or CHP:Telratolimod solution adjusted to a final concentration of 30 μM in terms of Telratolimod was added to the TAM prepared in Test Example 1, followed by incubation for 2 days, and TNF-α in the culture supernatant was measured by ELISA (BioLegend). The control was supplemented with only medium.

[3] = system: human peripheral blood-derived TAMs (phagocytosis of HeLa cells); experiment: Cancer cell phagocytosis test of human peripheral blood-derived TAMs; type: cell-based; conditions: 10 μM in terms of Telratolimod, 2 days, doxorubicin-treated HeLa cells, flow cytometry
Protocol: HeLa cells were labeled with fluorescent label 1 (CellTracker Green CMTPX Dye, ThermoFisher) for 30 minutes, then washed twice with PBS(−), and cultured overnight in medium (RPMI supplemented with 10% fetal bovine serum) containing 1.25 μM doxorubicin.
(§2) TAMs were prepared in the same manner as in Test Example 1, and Telratolimod or CHP:Telratolimod adjusted to a final concentration of 10 μM in terms of Telratolimod was added to the basal medium, followed by incubation for 2 days. After labeling with fluorescent labeling agent 2 (CellTracker Red CMTPX Dye, ThermoFisher) for 30 minutes, the cells were washed twice with PBS(−). The doxorubicin-treated HeLa cells were added at a half ratio to the TAMs and co-cultured overnight. The cells were then harvested, and the number of cells co-positive for fluorescent labels 1 and 2 was determined by flow cytometry. The control was supplemented with only medium.

[4] = Blood concentration changes in mouse allogeneic tumor transplantation model; type: in vivo, mice (C57BL/6JJmsSlc, female); conditions: 84.5 μg via tail vein injection, MC38-bearing mice, serum 1 min to 6 hours
Protocol: (§3) A mouse allogeneic tumor transplantation model was prepared by intradermally administering 10^6 cells of the mouse colon cancer cell line MC38 into the dorsal skin of mice (C57BL/6JJmsSlc, female). Mice on day 7 after cell administration were used. 84.5 μg of CHP:Telratolimod prepared in Example 2 or Telratolimod dissolved in a solubilizing solvent (17.1% polyethylene glycol 300, 4.3% Tween 80, and 8.6% polyoxyethylene hydrogenated castor oil) was administered via tail vein injection, and changes in the concentration of Telratolimod in the blood were measured. Blood was collected from 5 mice per group. After each test drug was administered via tail vein injection, 80 μL of isopropyl alcohol was added to 20 μL of serum collected after 1 minute, 30 minutes, 1 hour, 2 hours, and 6 hours, and bead crushing was performed for 1 minute using a 5 mm diameter stainless steel ball. Further, 400 μL of an 80% isopropyl alcohol and 20% acetonitrile solution was added and mixed, followed by sonication for 3 minutes, and centrifugation at 12000 g for 5 minutes to collect the supernatant. The collected supernatant was analyzed by LS-MS/MS to measure the Telratolimod concentration. […]

[5] = system: mouse colon cancer cell line MC38; experiment: Antitumor evaluation in mouse allogeneic tumor transplantation model (1); type: in vivo, mice (C57BL/6JJmsSlc, female); conditions: MC38, 84.5 μg Telratolimod i.v. on days 7, 9, 11, 14, 16, 18; day 19
Protocol: as §3, with “Further, 400 μL of an 80% isopropyl alcohol and 20% acetonitrile solution was added and mixed, followed by sonication for 3 minutes, and centrifugation at 12000 g for 5 minutes to collect the supernatant.” left out
An MC38 mouse allogeneic tumor transplantation model was prepared in the same manner as in Test Example 4. […] Tumor sizes were measured on days 7, 9, 11, 14, 16, 18, and 19. The tumor volume was calculated by (long axis×short axis×short axis)/2. […]

[6] = system: macrophages infiltrating into the tumors (MC38); experiment: Evaluation of TAM polarization in mouse allogeneic tumor transplantation model; type: in vivo, mice; conditions: MC38, 84.5 μg i.v. on days 7, 9, 11; tumors 1 day after final administration; flow cytometry
Protocol: An MC38 mouse allogeneic tumor transplantation model was prepared in the same manner as in Test Example 6, and on days 7, 9, and 11 after cell transplantation, the CHP:Telratolimod solution prepared in Example 2 and the Telratolimod solution prepared in Test Example 4 were each administered via tail vein injection to 5 mice per group (amount of Telratolimod: 84.5 μg). One day after the final administration, the tumors were excised, and macrophages infiltrating into the tumors were measured by flow cytometry. Significance tests were performed using one-way ANOVA (*P<0.05, **P<0.01, ***P<0.001, ****P<0.0001).

cytokines in serum = experiment: Evaluation of cytokine release in mouse allogeneic tumor transplantation model; type: in vivo, mice (C57BL/6JJmsSlc, female); conditions: 84.5 μg i.v., blood after 2 hours, MC38-bearing mice
Protocol: The allograft model mice used were 10 days after 10^6 cells of the mouse colorectal cancer cell line MC38 were administered intradermally into the dorsal skin of mice (C57BL/6JJmsSlc, female). The Telratolimod solution prepared in Test Example 4 and the CHP:Telratolimod solution prepared in Example 2 were each administered (amount of Telratolimod: 84.5 μg) via tail vein injection to 5 mice per group, and blood was collected after 2 hours. The serum was obtained by centrifugation, and changes in the amount of cytokines were measured using LEGENDplex Mouse Inflammation Panel (BioLegend). Significance tests were performed using one-way ANOVA (*P<0.05, **P<0.01, ***P<0.001, ****P<0.0001).

reticulocytes = experiment: Blood test in mouse allogeneic tumor transplantation model; type: in vivo; conditions: 84.5 μg i.v. on days 7, 9, 11; blood 1 day after final administration
Protocol: 10^6 cells of the mouse colorectal cancer cell line MC38 were administered intradermally into the dorsal skin of mice (C57BL/6JJmsSlc, female). After 7 days, 9 days, and 11 days, the Telratolimod solution prepared in Test Example 4 and the CHP:Telratolimod solution prepared in Example 2 were each administered (amount of Telratolimod: 84.5 μg) via tail vein injection to 5 mice per group. One day after the final administration, blood was collected, and changes in red blood cell and reticulocyte counts were measured. Significance tests were performed using one-way ANOVA (*P<0.05, **P<0.01, ***P<0.001, ****P<0.0001).

[7] = system: mouse colorectal cancer cell line CT26; experiment: Antitumor evaluation in mouse allogeneic tumor transplantation model (2); type: in vivo, mice (BALB/cCrSlc, female); conditions: Telratolimod 42 μg i.v. days 7, 9, 11, 14, 16, 18, anti-PD-1 antibody 100 μg i.p. days 7, 11, 14, 18
Protocol: A mouse allogeneic tumor transplantation model was prepared by intradermally administering 10^6 cells of the mouse colorectal cancer cell line CT26 into the dorsal skin of mice (BALB/cCrSlc, female). On days 7, 9, 11, 14, 16, and 18 after cell transplantation, the CHP:Telratolimod solution prepared in Example 2 and the Telratolimod solution prepared in Test Example 4 were each administered via tail vein injection, and on days 7, 11, 14, and 18 after cell transplantation, an anti-PD-1 antibody (RMP1-14, Bio X Cell) solution was administered intraperitoneally, to 5 mice per group (amount of Telratolimod: 42 μg, amount of anti-PD-1 antibody: 100 μg). One group received a combination of the CHP:Telratolimod solution and the anti-PD-1 antibody. Tumor sizes were measured on days 7, 9, 11, 14, 16, 18, and 21. The tumor volume was calculated by (long axis×short axis×short axis)/2. The negative control is an untreated group.

[8] = system: human peripheral blood-derived M2-like macrophages; experiment: Polarization test of human peripheral blood-derived M2-like macrophages (cytokine bead assay); type: cell-based; conditions: 3 μM, 1 day, culture supernatant
Protocol: as §1, with “M2-like macrophage” for “TAM”, “adding” for “adding 10% fetal bovine serum,”, “IL-10, and” for “IL-10,”, “IL-13” for “IL-13, and 5% human AB type male donor defibrinated serum (Veritas)”, “the basal medium,” for “a separately prepared culture supernatant of human cancer cells,”
A Telratolimod solution or CHP:Telratolimod solution adjusted to a final concentration of 3 μM in terms of Telratolimod was added to the M2-like macrophages prepared in Test Example 11, followed by incubation for 1 day, and TNF-α, IL-1β, IL-6, IL-12p40 (p40 subunit of IL-12), IL-23, and CXCL10 in the culture supernatant were measured using a flow cytometry bead assay kit (LEGENDplex™, BioLegend). The control was supplemented with only medium.

[9] = system: human peripheral blood-derived M2-like macrophages (phagocytosis of HeLa cells); experiment: Cancer cell phagocytosis test of human peripheral blood-derived M2-like macrophages; type: cell-based; conditions: 10 μM in terms of Telratolimod, 1 day, flow cytometry
Protocol: HeLa cells were labeled with fluorescent label 1 (CellTracker Green CMTPX Dye, ThermoFisher) for 30 minutes, then washed twice with PBS(−), and cultured overnight in medium (RPMI supplemented with 10% fetal bovine serum) containing 2.5 μM doxorubicin.
as §2, with “Telratolimod” for “TAMs were prepared in the same manner as in Test Example 1, and Telratolimod”, “and the M2-like macrophages prepared in Test Example 11 were incubated” for “followed by incubation”, “1 day.” for “2 days.”, “The” for “The doxorubicin-treated”, “M2-like macrophages” for “TAMs”

CCCCCCCCCCCCCCCCCC(=O)NCCCCOn1c(CCCC)nc2c(N)nc3ccccc3c21 [Telratolimod]
whether the compound could be encapsulated in CHP nanogel and formed into a solution [1]: could be stably encapsulated in the CHP nanogel and formed into a solution | TNF-α [2]: 700 pg/mL | Phagocytosis rate [3]: 5.5% | blood concentration of Telratolimod over time [4]: rapidly decreased within 30 minutes after administration | growth inhibition compared to the solvent control [5]: 49% | expression of ARG1 (M2-like macrophage marker) [6]: tended to decrease | expression of iNOS (M1-like macrophage marker) [6]: significantly increased | IFN-β in serum (cytokines in serum): rapid increases | IL-6 in serum (cytokines in serum): rapid increases | MCP-1 in serum (cytokines in serum): rapid increases | change in reticulocytes (bone marrow toxicity indicator) (reticulocytes): significant decrease | antitumor effect (tumor volume) [7]: limited | CXCL10 [8]: 140 ± 20 pg/mL | IL-1β [8]: 2.3 ± 0.64 pg/mL | IL-6 [8]: 3100 ± 380 pg/mL | IL-12p40 [8]: 59 ± 22 pg/mL | IL-23 [8]: 1.4 ± 0.35 pg/mL | TNF-α [8]: 40 ± 7.3 pg/mL | Phagocytosis rate [9]: 9.7%
